Measured values published in PubChem BioAssay (NCI).
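Method: 48-hour compound exposure of cells in 96-well plates, five concentrations, linear interpolation of endpoints. GI50: concentration for 50% inhibition of growth. TGI is the concentration that stops growth completely.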

Columns and labels:
Experiment in all cases: growth of human tumour cells (NCI), 48 h
[1] = system: RXF 393 renal
[2] = system: NCI-H522 lung
[3] = system: NCI-H226 lung
[4] = system: NCI/ADR-RES ovarian
[5] = system: MCF7 breast
[6] = system: KM12 colon
[7] = system: SF-268 CNS
[8] = system: UACC-257 melanoma
[9] = system: SW-620 colon
[10] = system: HCC-2998 colon
[11] = system: NCI-H460 lung
[12] = system: A549 NSCLC
[13] = system: OVCAR-8 ovarian
[14] = system: OVCAR-3 ovarian
[15] = system: SF-295 CNS
[16] = system: MOLT-4 leukemia
[17] = system: DU-145 prostate
[18] = system: HCT-116 colon
[19] = system: SF-539 CNS
[20] = system: SN12C renal
[21] = system: IGROV1 ovarian
[22] = system: SK-OV-3 ovarian
[23] = system: SNB-19 CNS
[24] = system: OVCAR-4 ovarian
[25] = system: HL-60(TB) leukemia
[26] = system: MALME-3M melanoma
[27] = system: M14 melanoma
[28] = system: SK-MEL-5 melanoma
[29] = system: HS 578T breast
[30] = system: SK-MEL-28 melanoma
[31] = system: COLO 205 colon
[32] = system: ACHN renal
[33] = system: HT29 colon
[34] = system: U251 CNS
[35] = system: TK-10 renal
[36] = system: A498 renal
[37] = system: OVCAR-5 ovarian
[38] = system: SNB-75 CNS
[39] = system: 786-0 renal
[40] = system: UACC-62 melanoma
[41] = system: UO-31 renal
[42] = system: K-562 leukemia
[43] = system: BT-549 breast
[44] = system: HCT-15 colon
[45] = system: LOX IMVI melanoma
[46] = system: MDA-MB-231 breast
[47] = system: HOP-62 NSCLC
[48] = system: SK-MEL-2 melanoma
[49] = system: EKVX NSCLC
[50] = system: MDA-MB-435

CCCC1CCC(O)(C(C)(O)C(=O)NC2C(=O)N3NCCCC3C(=O)N(O)C(C)C(=O)N3NCCCC3C(=O)N3NCC(O)CC3C(=O)NC(C)C(=O)OC2C(C)C)OC1CC (configuration not stated)
GI50 [1]: > 25 µM | TGI [1]: > 25 µM | GI50 [2]: > 25 µM | TGI [2]: > 25 µM | GI50 [3]: > 25 µM | TGI [3]: > 25 µM | TGI [4]: > 5.53 µM

CCN(CC)CCCCCOc1cc(O)c2c(=O)cc(-c3ccccc3)oc2c1
GI50 [5]: 1.66 µM | TGI [5]: 3.83 µM | GI50 [6]: 2.89 µM | TGI [6]: 9.37 µM | GI50 [7]: 7.82 µM | TGI [7]: 25.5 µM | GI50 [8]: 1.81 µM | TGI [8]: 3.55 µM | GI50 [9]: 3.03 µM | TGI [9]: 10.3 µM | GI50 [10]: 0.386 µM | TGI [10]: 2.35 µM | GI50 [11]: 2.24 µM | TGI [11]: 5.48 µM | GI50 [12]: 5.26 µM | TGI [12]: 18.5 µM | GI50 [13]: 11.5 µM | TGI [13]: 25.5 µM | GI50 [14]: 1.93 µM | TGI [14]: 4.94 µM | GI50 [15]: 2.87 µM | TGI [15]: 5.69 µM | GI50 [16]: 3.76 µM | TGI [16]: 11.2 µM | GI50 [17]: 4.61 µM | TGI [17]: 17.4 µM | GI50 [18]: 1.74 µM | TGI [18]: 3.52 µM | GI50 [1]: 1.6 µM | TGI [1]: 3.37 µM | GI50 [19]: 2.43 µM | TGI [19]: 6.01 µM | GI50 [20]: 4.78 µM | TGI [20]: 17 µM | GI50 [21]: 2.08 µM | TGI [21]: 4.87 µM | GI50 [22]: 6.95 µM | TGI [22]: 17.8 µM | GI50 [23]: 6.76 µM | TGI [23]: 21.3 µM | GI50 [24]: 7.27 µM | TGI [24]: 20.5 µM | GI50 [25]: 2.67 µM | TGI [25]: 7.1 µM | GI50 [26]: 1.86 µM | TGI [26]: 4.2 µM | GI50 [27]: 1.71 µM | TGI [27]: 3.1 µM | GI50 [2]: 2.23 µM | TGI [2]: 5.13 µM | GI50 [28]: 1.91 µM | TGI [28]: 3.83 µM | GI50 [29]: 15.6 µM | TGI [29]: 42.7 µM | GI50 [30]: 1.62 µM | TGI [30]: 3.07 µM | GI50 [31]: 2.13 µM | TGI [31]: 5.02 µM | GI50 [32]: 3.72 µM | TGI [32]: 11.7 µM | GI50 [33]: 2.21 µM | TGI [33]: 5.5 µM | GI50 [34]: 3.16 µM | TGI [34]: 11.8 µM | GI50 [35]: 7.1 µM | TGI [35]: 27.1 µM | GI50 [36]: 2.46 µM | TGI [36]: 9.48 µM | GI50 [3]: 10.5 µM | TGI [3]: 25.8 µM | GI50 [37]: 2.37 µM | TGI [37]: 6.97 µM | GI50 [38]: 13 µM | TGI [38]: 25.6 µM | GI50 [39]: 1.97 µM | TGI [39]: 3.81 µM | GI50 [40]: 1.74 µM | TGI [40]: 3.15 µM | GI50 [41]: 1.85 µM | TGI [41]: 3.64 µM | GI50 [42]: 1.86 µM | TGI [42]: 3.56 µM | GI50 [43]: 12.5 µM | TGI [43]: 26.5 µM | GI50 [44]: 1.58 µM | TGI [44]: 3.76 µM | GI50 [45]: 1.57 µM | TGI [45]: 2.96 µM | GI50 [4]: 3.06 µM | TGI [4]: 11.6 µM | GI50 [46]: 1.49 µM | TGI [46]: 4.34 µM | GI50 [47]: 2.43 µM | TGI [47]: 9.71 µM | GI50 [48]: 3.23 µM | TGI [48]: 11.4 µM | GI50 [49]: 6.93 µM | TGI [49]: 23.6 µM | GI50 [50]: 3.18 µM | TGI [50]: 7.63 µM
